In patent publication US20110280831A1, “COMBINATIONS COMPRISING METHOTREXATE AND DHODH INHIBITORS” (priority 2009, published 2011):
“Also recorded” adds a separate entry of the source.

Tests used:
Swiss mice = assay: Acute hepatotoxicity assay, plasma liver markers; assay type: in vivo; conditions: for ALT plasma level / AST plasma level / BIL (total bilirubin) plasma level: Swiss mice, single 100 mg/kg intraperitoneal, 24 hours later
Method: Acute hepatotoxicity assays were performed in Swiss mice. Animals received a single administration of either vehicle, or 100 mg/kg of teriflunomide or a compound of the present invention (compounds from the list indicated previously) by intraperitoneal route. Twenty-four hours later, animals were sacrificed and the levels of liver markers AST (aspartate aminotransferase), ALT (alanine aminotransferase) and BIL (total bilirubin) in plasma were determined.

human DHODH = human DHODH (Homo sapiens, UniProt Q02127); assay: Inhibition of human DHODH activity assay (DCIP chromogen reduction); assay type: biochemical; conditions: enzyme extracts, 10 min at room temperature, absorbance at 600 nm, duplicate; read-out: hDHODH IC50
Method: DHODH activity and its inhibition were studied using a chromogen reduction assay with DCIP (2,6-dichlorophenol-indophenol).
Enzyme extracts (8 μl, ˜1.5 μg of human protein) were incubated in 96-well plates. The assay mixture (200 μl) contained 200 μM CoQD, 100 μM L-DHO, 120 μM DCIP in the assay buffer (100 mM HEPES pH 8.0, 150 mM NaCl, 10% Glicerol, 0.05% Triton X-100) and 2 μl of test compound. The compounds were dissolved in DMSO at a stock concentration of 1 mM, and tested at different concentrations varying from 10 μM to 1 pM to calculate an IC50 (concentration of inhibitor required for 50% of inhibition).
The reaction was initiated by adding the enzyme and then incubated for 10 min at room temperature before measuring DCIP reduction by counting a decrease in absorbance at 600 nm using standard instrumentation (Spectramax).
All reactions were carried out in duplicate and graphs, determining IC50 values for each compound, were plotted using the ABase software.

[1] = system: rat adjuvant-induced arthritis model (AIA); assay: Efficacy assay in rat adjuvant-induced arthritis model (AIA), curative protocol; assay type: in vivo, Wistar rats; conditions: arthritic rats, oral once a day for 10 days, compound 20 10 mg/Kg/day, MTX 0.05 mg/Kg/day, AUC days 10-21 versus vehicle, mean and SEM
Method: The effect of DHODH inhibitor compounds were tested in combination with methotrexate (0.05 mg/Kg/day) in the rat adjuvant-induced arthritis model (AIA) in animals with established disease (curative protocol). Briefly, Complete Freund Adjuvant (CFA) was injected into the left hind footpad of Wistar rats, and 10 days later the swelling of the two rear paws was measured with a plethysnnometer. […] Compounds were administered orally once a day for 10 days and paw volumes were determined every two days up to day 21.
The percentage of inhibition for every group was calculated versus values from vehicle-treated rats. The table below depicts the mean and SEM of one experiment using 6 animals per group.

Chain of human DHODH (Q02127 whole entry): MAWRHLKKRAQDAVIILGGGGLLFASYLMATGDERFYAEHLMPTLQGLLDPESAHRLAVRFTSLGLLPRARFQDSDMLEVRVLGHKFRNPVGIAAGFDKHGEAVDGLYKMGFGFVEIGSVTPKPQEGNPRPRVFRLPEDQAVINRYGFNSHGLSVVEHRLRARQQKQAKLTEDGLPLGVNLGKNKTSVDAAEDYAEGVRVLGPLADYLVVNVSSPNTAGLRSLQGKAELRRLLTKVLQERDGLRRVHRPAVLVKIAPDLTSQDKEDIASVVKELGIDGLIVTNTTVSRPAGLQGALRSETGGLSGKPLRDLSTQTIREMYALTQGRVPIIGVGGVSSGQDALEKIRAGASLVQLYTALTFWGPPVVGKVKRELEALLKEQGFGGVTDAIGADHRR

Row | IC50 (human DHODH) [nM] | SMILES | ALT plasma level (Swiss mice) [IU/I] | AST plasma level (Swiss mice) [IU/I] | BIL (total bilirubin) plasma level (Swiss mice) [mg/dL] | change in plasma liver markers (AST, ALT, BIL) compared to vehicle-treated mice, in words (Swiss mice; mice, intraperitoneal route, 100 mg/kg) | % inhibition of the inflammation (AUC) Right paw [1] [%]
1 | 19 | Cc1ccc(Nc2ccc(-c3c(F)cccc3F)nc2)c(C(=O)O)c1 [Compound 119, 2-(6-(2,6-Difluorophenyl)pyridin-3-ylamino)-5-methylbenzoic acid] | 69 | 96 | 0.08 | – | –
2 | 3 | O=C(O)c1cc(C2CC2)ccc1Nc1cnc(-c2ccccc2Cl)nc1 [Compound 121, 2-(2-(2-Chlorophenyl)pyrimidin-5-ylamino)-5-cyclopropylbenzoic acid] | 75 | 105 | 0.05 | – | –
3 | 10 | O=C(O)c1cc(C2CC2)ccc1Nc1cnc(-c2ccccc2F)nc1 [Compound 127, 5-Cyclopropyl-2-(2-(2-fluorophenyl)pyrimidin-5-ylamino)benzoic acid] | 56 | 72 | 0.07 | – | –
4 | 14 | Cc1ccc(Nc2cnc(-c3ccccc3Cl)c(C)c2)c(C(=O)O)c1 [Compound 71, 2-(6-(2-Chlorophenyl)-5-methylpyridin-3-ylamino)-5-methylbenzoic acid] | 72 | 95 | 0.05 | – | –
5 | – | C/C(O)=C(\C#N)C(=O)Nc1ccc(C(F)(F)F)cc1 [Teriflunomide, reference compound] | 440 | 655 | 0.46 | dramatic increase; also recorded: drastic increase | –
6 | 32 | Cc1ccc(Nc2ccc(-c3ccccc3Cl)nc2)c(C(=O)O)c1 [Compound 85, 2-(6-(2-Chlorophenyl)pyridin-3-ylamino)-5-methylbenzoic acid] | 43 | 83 | 0.13 | – | –
7 | 53 | Cc1ccc(Nc2cnc(-c3ccccc3)c(C)c2)c(C(=O)O)c1 [Compound 60, 5-Methyl-2-(5-methyl-6-phenylpyridin-3-ylamino)benzoic acid] | 70 | 131 | 0.09 | – | –
8 | 14 | O=C(O)c1cc(C2CC2)ccc1Nc1cnc(-c2c(F)cccc2F)nc1 [Compound 20, 5-cyclopropyl-2-(2-(2,6-difluorophenyl)pyrimidin-5-ylamino)benzoic acid] | 45 | 98 | 0.07 | – | 32 ± 8
9 | 49 | COc1ncc(Nc2ccc(C3CC3)cc2C(=O)O)cc1-c1ccccc1 [Compound 7, 5-Cyclopropyl-2-(6-methoxy-5-phenylpyridin-3-ylamino)benzoic acid] | – | – | – | – | –
10 | 5 | Cc1ccc(Nc2cnc(-c3ccccc3F)c(C)c2)c(C(=O)O)c1 [Compound 97, 2-(6-(2-Fluorophenyl)-5-methylpyridin-3-ylamino)-5-methylbenzoic acid] | 55 | 92 | 0.11 | – | –
11 | 6 | Cc1cc(Nc2ccc(C3CC3)cc2C(=O)O)cnc1-c1ccccc1 [Compound 91, 5-Cyclopropyl-2-(5-methyl-6-phenylpyridin-3-ylamino)benzoic acid] | – | – | – | – | –
12 | 57 | O=C(O)c1cc(C2CC2)ccc1Nc1cnc(-c2ccccc2C2CC2)nc1 [Compound 14, 5-Cyclopropyl-2-(2-(2-cyclopropylphenyl)pyrimidin-5-ylamino)benzoic acid] | – | – | – | – | –
13 | 57 | Cc1ccc(Nc2cnc(-c3ccccc3Cl)nc2)c(C(=O)O)c1 [Compound 123, 2-(2-(2-Chlorophenyl)pyrimidin-5-ylamino)-5-methylbenzoic acid] | 89 | 113 | 0.06 | – | –
14 | 5 | Cc1cc(Nc2ccc(C3CC3)cc2C(=O)O)cnc1-c1cccc(OC(F)(F)F)c1 [Compound 89, 5-Cyclopropyl-2-(5-methyl-6-(3-(trifluoromethoxy)phenyl)pyridin-3-ylamino)benzoic acid] | – | – | – | – | –
15 | – | CN(Cc1cnc2nc(N)nc(N)c2n1)c1ccc(C(=O)N[C@@H](CCC(=O)O)C(=O)O)cc1 [MTX, Methotrexate] | – | – | – | – | 33 ± 9
16 | 138 | COc1cccc(-c2ncc(Nc3ccc(C(F)(F)F)cc3C(=O)O)cc2C)c1 [Compound 50, 2-(6-(3-Methoxyphenyl)-5-methylpyridin-3-ylamino)-5-(trifluoromethyl)benzoic acid] | – | – | – | – | –
